This note sets out measurements from patent publication US8840927B2, “Method of making anti-microbial polymeric surfaces” (Covalon Technologies Inc., priority 2001, dated 2014).

In brackets after ≈: the same amount, converted by molar mass.

A short description of the series: Aqueous solubility of photo-initiator. It counts as physicochemical. The protocol:
Pre-weighed silicone disks (approximately 0.7 cm in diameter, 0.2 cm in thickness) or cylindrical sections (approximately 0.5 cm in diameter, 1 cm in length) were incubated in a methanol solution of photo-initiator (BPB; or p-benzoyl benzoic acid, BBA) for 1 hour followed by air drying at about 40° C. for 2 hours. Samples were then suspended in vials containing 3 mL of aqueous monomer solution. When required, monomer solutions were saturated with BPB. The aqueous solubility of BPB was 4 μg/mL. All solutions were filtered through 0.22 μm pore filters prior to being flushed with nitrogen for 15 min. Vials were sealed with rubber septa and placed 2.5 cm beneath a pair of UVA bulbs (15 W ea.). Radiation intensity at the sample site was 3.8 mW/cm2 as determined by UV actinometry (16). After completion of the graft polymerization reaction, samples were briefly washed under running water with occasional scrubbing to remove any signs of adsorbed homopolymer. The remaining non-grafted material was removed by overnight incubation in 50% ethanol followed by a 4 hour incubation in water. Samples were dried in a 60° C. oven for 16 hours before their weights were determined using a microbalance. Quadruplicate samples of each treatment were analysed in all experiments.

Usually aqueous solubility stands for the concentration that dissolves in the medium under given conditions. Read a high aqueous solubility as much dissolved substance. On to `CC(C)(C)OOC(=O)c1ccc(C(=O)c2ccccc2)cc1` [BPB, p-benzoyl tert-butylperbenzoate], for which the aqueous solubility was determined as 4 µg/mL (≈ 13.4 µM).
